In PMC11233931, “Remodeling tumor‐associated macrophage for anti‐cancer effects by rational design of irreversible inhibition of mitogen‐activated protein kinase‐activated protein kinase 2” (MedComm, 2024):

Columns and labels:
Assay in all cases: Eurofins kinase selectivity profile against 380 other human recombinant kinases (Table S2)
Format in all cases: biochemical
[1] = target: T1, 380 human recombinant protein kinases (Homo sapiens, UniProt O75582); settings: MSK1(h), read-out: Inhibition rate
T1 construct: purchased Eurofins (Celle Lévescault)
T1 sequence (O75582 whole entry): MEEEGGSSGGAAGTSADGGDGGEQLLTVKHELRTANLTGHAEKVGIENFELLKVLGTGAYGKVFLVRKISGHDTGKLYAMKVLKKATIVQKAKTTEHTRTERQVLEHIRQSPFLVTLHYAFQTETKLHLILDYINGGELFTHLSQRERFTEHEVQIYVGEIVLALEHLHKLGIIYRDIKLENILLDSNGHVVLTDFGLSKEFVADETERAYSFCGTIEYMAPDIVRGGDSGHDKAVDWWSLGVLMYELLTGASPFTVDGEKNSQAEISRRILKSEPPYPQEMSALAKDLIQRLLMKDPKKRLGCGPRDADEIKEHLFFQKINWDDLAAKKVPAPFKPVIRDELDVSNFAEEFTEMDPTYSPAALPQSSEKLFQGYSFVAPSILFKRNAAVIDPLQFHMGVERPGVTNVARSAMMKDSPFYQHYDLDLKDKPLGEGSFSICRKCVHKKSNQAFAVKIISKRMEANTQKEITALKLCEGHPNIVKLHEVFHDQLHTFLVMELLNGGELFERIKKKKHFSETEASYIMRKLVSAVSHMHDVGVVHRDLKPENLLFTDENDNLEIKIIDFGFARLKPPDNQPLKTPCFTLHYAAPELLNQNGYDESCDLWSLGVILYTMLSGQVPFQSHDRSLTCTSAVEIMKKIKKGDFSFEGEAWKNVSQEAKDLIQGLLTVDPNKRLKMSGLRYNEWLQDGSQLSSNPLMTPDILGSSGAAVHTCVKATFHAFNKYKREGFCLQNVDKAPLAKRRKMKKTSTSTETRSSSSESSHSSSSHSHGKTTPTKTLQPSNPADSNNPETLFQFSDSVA
In short: (§1)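 Values come from a contract kinase-profiling service that tested the compound at multiple concentrations across 380 recombinant human kinases, as an off-target check against the MK2 activity.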

[2] = target: T2, 380 human recombinant protein kinases (Homo sapiens, UniProt Q8IYT8); settings: ULK2(h), read-out: Inhibition rate (%)
T2 construct: purchased Eurofins (Celle Lévescault)
T2 sequence (Q8IYT8 1-1036): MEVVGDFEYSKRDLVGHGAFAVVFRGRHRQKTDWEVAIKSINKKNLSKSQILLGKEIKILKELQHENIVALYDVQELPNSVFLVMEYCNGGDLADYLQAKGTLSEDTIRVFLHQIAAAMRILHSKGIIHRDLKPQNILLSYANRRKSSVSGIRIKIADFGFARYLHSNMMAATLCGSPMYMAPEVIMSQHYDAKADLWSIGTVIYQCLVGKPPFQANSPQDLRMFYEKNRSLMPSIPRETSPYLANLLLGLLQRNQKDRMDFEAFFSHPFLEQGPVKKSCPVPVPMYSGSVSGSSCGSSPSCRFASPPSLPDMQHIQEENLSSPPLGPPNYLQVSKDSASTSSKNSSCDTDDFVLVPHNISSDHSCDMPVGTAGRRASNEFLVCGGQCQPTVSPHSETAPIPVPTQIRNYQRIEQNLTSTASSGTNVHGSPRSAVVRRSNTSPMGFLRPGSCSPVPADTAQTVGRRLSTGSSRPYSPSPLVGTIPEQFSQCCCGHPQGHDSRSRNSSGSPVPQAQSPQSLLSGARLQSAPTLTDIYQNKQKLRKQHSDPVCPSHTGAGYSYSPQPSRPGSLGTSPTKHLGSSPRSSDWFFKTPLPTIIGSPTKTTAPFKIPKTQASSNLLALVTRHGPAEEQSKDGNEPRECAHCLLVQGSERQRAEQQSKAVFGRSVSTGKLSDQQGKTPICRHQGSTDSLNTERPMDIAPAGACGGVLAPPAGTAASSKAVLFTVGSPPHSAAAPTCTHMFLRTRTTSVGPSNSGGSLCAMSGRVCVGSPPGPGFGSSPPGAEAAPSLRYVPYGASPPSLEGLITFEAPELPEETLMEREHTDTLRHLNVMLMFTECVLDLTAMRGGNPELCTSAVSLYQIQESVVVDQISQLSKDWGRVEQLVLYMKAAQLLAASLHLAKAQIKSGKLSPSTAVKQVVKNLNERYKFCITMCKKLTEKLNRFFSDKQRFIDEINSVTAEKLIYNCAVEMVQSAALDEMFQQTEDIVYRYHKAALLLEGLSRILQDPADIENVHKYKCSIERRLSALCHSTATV
In short: as §1

[3] = target: T3, 380 human recombinant protein kinases (Homo sapiens, UniProt P11802); settings: CDK4/cyclinD3(h), read-out: Inhibition rate
T3 construct: purchased Eurofins (Celle Lévescault)
T3 sequence (P11802 whole entry): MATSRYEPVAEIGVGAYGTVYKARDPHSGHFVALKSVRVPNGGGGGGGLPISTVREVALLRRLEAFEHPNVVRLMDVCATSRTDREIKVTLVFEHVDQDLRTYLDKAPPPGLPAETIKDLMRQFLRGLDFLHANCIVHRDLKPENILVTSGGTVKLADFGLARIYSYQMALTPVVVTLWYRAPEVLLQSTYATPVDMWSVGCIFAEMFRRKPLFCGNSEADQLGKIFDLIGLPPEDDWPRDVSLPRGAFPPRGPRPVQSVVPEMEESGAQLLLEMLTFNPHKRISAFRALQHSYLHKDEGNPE
In short: as §1

[4] = target: T4, 380 human recombinant protein kinases (Homo sapiens, UniProt O94921); settings: CDK14/cyclinY(h), read-out: Inhibition rate
T4 construct: purchased Eurofins (Celle Lévescault)
In short: as §1

[5] = target: T5, 380 human recombinant protein kinases (Homo sapiens, UniProt Q9HAZ1); settings: CLK4(h), read-out: Inhibition rate
T5 construct: purchased Eurofins (Celle Lévescault)
T5 sequence (Q9HAZ1 whole entry): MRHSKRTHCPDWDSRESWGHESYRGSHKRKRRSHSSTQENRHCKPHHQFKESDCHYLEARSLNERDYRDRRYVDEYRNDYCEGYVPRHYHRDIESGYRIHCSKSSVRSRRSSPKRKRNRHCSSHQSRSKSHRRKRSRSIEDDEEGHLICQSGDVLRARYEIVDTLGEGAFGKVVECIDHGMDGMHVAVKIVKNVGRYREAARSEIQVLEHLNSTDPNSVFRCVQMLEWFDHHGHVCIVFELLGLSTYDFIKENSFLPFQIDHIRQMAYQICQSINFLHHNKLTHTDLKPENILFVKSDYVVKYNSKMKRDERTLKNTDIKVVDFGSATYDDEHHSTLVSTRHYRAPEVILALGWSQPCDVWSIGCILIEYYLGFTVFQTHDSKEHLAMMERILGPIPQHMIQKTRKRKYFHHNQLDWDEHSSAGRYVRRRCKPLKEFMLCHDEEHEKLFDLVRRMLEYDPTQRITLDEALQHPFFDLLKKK
In short: as §1

[6] = target: T6, 380 human recombinant protein kinases (Homo sapiens, UniProt Q9P2K8); settings: GCN2(h), read-out: Inhibition rate
T6 construct: purchased Eurofins (Celle Lévescault)
In short: as §1

[7] = target: T7, 380 human recombinant protein kinases (Homo sapiens, UniProt Q9H4A3); settings: WNK1(h), read-out: Inhibition rate (%)
T7 construct: purchased Eurofins (Celle Lévescault)
T7 sequence (Q9H4A3 whole entry): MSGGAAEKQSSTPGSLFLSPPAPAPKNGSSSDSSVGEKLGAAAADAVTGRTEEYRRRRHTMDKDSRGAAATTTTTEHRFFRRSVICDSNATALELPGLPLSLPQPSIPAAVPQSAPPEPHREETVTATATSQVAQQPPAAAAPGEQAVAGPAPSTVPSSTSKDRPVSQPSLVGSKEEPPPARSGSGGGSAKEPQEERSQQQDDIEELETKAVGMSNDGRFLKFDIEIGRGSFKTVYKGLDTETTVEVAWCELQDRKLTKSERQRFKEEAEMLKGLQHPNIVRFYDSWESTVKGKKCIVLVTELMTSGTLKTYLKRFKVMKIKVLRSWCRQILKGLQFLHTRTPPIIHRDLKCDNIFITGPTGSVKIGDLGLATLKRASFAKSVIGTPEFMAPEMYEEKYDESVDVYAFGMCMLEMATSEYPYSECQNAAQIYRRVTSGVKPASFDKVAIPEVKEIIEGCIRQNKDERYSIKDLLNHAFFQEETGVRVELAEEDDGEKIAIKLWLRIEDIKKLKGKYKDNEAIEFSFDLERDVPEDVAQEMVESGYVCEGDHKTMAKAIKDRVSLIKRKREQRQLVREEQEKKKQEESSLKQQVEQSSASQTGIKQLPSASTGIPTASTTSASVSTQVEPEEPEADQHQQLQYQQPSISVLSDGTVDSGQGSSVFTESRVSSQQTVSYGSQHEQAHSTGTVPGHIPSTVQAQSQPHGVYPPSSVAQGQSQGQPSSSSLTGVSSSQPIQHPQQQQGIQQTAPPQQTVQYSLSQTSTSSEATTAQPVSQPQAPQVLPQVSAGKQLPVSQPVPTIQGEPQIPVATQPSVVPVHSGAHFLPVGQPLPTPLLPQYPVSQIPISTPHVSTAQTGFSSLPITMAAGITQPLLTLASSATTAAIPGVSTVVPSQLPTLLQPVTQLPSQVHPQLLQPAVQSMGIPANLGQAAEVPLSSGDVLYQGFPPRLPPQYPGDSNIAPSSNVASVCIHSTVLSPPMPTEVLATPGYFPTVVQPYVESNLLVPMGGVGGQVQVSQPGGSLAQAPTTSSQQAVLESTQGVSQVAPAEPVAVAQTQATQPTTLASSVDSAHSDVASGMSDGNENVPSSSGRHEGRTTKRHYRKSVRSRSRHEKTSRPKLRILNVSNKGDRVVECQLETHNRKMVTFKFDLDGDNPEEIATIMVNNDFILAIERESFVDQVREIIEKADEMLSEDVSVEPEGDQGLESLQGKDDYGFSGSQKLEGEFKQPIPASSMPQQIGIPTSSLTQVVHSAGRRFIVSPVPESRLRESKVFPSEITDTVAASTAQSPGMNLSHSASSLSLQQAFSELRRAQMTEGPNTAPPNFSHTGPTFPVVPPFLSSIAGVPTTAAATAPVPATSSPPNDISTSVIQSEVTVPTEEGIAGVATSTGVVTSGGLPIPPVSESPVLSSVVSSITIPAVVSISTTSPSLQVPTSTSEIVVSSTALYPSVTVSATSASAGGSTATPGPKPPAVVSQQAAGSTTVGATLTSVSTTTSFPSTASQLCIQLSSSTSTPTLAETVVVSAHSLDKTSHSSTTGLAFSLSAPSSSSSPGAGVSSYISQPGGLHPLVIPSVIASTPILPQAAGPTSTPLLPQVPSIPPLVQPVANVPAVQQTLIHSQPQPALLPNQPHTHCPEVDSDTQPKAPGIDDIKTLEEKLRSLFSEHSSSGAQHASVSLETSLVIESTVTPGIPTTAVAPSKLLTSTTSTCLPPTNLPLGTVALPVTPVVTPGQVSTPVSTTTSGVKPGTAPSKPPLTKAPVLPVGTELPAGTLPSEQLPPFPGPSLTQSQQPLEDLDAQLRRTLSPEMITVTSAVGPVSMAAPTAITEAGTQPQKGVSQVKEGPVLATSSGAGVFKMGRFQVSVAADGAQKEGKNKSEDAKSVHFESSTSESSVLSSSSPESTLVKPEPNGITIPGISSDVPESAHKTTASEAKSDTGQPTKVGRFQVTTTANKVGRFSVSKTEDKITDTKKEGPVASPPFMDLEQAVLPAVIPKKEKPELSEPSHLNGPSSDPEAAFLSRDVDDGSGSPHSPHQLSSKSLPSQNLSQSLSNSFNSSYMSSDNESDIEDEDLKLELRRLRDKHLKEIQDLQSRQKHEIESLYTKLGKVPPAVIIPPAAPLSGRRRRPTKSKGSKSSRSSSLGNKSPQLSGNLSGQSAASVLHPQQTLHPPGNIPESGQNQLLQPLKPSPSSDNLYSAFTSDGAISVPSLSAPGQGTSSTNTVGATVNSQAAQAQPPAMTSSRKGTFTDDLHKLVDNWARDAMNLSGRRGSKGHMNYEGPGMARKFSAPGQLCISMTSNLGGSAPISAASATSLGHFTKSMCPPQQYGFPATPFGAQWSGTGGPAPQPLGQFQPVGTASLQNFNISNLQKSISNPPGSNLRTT
In short: as §1

[8] = target: T8, 380 human recombinant protein kinases (Homo sapiens, UniProt Q14012); settings: CaMKI(h), read-out: Inhibition rate
T8 construct: purchased Eurofins (Celle Lévescault)
T8 sequence (Q14012 whole entry): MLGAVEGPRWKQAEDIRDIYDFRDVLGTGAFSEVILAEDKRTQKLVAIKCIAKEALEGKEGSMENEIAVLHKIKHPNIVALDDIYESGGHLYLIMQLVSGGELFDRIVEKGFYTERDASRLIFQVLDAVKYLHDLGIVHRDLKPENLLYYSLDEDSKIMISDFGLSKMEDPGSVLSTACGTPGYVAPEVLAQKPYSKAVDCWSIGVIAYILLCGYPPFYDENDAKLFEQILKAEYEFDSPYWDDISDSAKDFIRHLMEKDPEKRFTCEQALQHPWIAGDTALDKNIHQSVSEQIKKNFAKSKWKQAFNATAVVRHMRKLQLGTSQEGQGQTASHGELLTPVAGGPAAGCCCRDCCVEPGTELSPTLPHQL
In short: as §1

[9] = target: T9, 380 human recombinant protein kinases (Homo sapiens, UniProt P53350); settings: Plk1(h), read-out: Inhibition rate
T9 construct: purchased Eurofins (Celle Lévescault)
T9 sequence (P53350 whole entry): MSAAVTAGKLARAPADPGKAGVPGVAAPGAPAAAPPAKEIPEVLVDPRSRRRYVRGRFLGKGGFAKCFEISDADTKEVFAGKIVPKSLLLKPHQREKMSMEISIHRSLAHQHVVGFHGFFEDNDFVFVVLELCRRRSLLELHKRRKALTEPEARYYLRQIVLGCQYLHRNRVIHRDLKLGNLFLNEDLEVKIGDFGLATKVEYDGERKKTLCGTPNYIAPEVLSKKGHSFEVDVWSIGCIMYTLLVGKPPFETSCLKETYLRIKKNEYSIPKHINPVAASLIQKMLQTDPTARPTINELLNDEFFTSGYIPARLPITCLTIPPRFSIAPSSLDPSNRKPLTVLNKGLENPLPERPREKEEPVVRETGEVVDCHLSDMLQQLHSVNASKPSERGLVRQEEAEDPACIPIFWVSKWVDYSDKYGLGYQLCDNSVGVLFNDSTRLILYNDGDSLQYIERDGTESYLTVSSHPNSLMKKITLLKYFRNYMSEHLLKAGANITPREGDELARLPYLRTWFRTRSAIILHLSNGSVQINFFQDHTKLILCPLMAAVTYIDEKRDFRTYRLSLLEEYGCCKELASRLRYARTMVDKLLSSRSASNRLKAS
In short: as §1

[10] = target: T10, 380 human recombinant protein kinases (Homo sapiens, UniProt Q05513); settings: PKCζ(h), read-out: Inhibition rate
T10 construct: purchased Eurofins (Celle Lévescault)
T10 sequence (Q05513 1-592): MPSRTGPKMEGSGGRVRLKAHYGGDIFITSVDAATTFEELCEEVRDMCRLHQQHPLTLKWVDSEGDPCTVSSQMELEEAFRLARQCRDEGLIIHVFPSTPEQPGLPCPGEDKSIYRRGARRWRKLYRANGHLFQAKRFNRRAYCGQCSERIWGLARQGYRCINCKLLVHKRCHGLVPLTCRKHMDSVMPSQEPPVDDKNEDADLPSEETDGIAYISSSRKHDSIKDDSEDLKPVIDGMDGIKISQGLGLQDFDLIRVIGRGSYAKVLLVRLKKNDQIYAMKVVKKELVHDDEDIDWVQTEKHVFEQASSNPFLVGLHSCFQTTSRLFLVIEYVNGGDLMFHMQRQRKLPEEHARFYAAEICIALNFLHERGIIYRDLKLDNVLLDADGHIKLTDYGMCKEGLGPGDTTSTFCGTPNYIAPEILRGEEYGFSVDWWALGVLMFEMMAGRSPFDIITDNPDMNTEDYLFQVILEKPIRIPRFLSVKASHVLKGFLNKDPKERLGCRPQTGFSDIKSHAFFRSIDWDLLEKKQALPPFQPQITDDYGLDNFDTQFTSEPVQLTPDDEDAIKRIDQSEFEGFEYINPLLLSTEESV
In short: as §1

SMILES: C=CC(=O)Nc1cc(-c2cc(-c3cc4c([nH]3)CCNC4=O)ccn2)ccc1OC(F)(F)F [compound 11]
- inhibition at 0.01 µM ([1]; 10 nM): -11%
- inhibition at 0.1 µM ([1]; 100 nM): -12%
- inhibition at 1 µM ([1]; 1000 nM): -11%
- inhibition at 0.01 µM ([2]; 10 nM): 6%
- inhibition at 0.1 µM ([2]; 100 nM): 6%
- inhibition at 1 µM ([2]; 1000 nM): 5%
- inhibition at 0.01 µM ([3]; 10 nM): 3%
- inhibition at 0.1 µM ([3]; 100 nM): 0%
- inhibition at 1 µM ([3]; 1000 nM): 2%
- inhibition at 0.01 µM ([4]; 10 nM): -2%
- inhibition at 0.1 µM ([4]; 100 nM): 7%
- inhibition at 1 µM ([4]; 1000 nM): 4%
- inhibition at 0.01 µM ([5]; 10 nM): -6%
- inhibition at 0.1 µM ([5]; 100 nM): 25%
- inhibition at 1 µM ([5]; 1000 nM): 76%
- inhibition at 0.01 µM ([6]; 10 nM): 7%
- inhibition at 0.1 µM ([6]; 100 nM): 9%
- inhibition at 1 µM ([6]; 1000 nM): 5%
- inhibition at 0.01 µM ([7]; 10 nM): 6%
- inhibition at 0.1 µM ([7]; 100 nM): 2%
- inhibition at 1 µM ([7]; 1000 nM): 4%
- inhibition at 0.01 µM ([8]; 10 nM): -3%
- inhibition at 0.1 µM ([8]; 100 nM): -3%
- inhibition at 1 µM ([8]; 1000 nM): -6%
- inhibition at 0.01 µM ([9]; 10 nM): 13%
- inhibition at 0.1 µM ([9]; 100 nM): 15%
- inhibition at 1 µM ([9]; 1000 nM): 13%
- inhibition at 0.01 µM ([10]; 10 nM): -5%
- inhibition at 0.1 µM ([10]; 100 nM): -4%
- inhibition at 1 µM ([10]; 1000 nM): -8%
